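48-hour exposure; five concentrations; linearly interpolated endpoints. Abbreviation: GI50, concentration required for 50% inhibition of growth.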 Calls of active or inactive are those of the source. Rule as the data show it: active = GI50 up to about 1.1 µM and inactive = higher.
Experiments:
Test in all cases: DTP human tumour cell line panel, 48 h
[1] = test system: HL-60
[2] = test system: UO-31
[3] = test system: K562
[4] = test system: NCI-H460
[5] = test system: RPMI-8226
[6] = test system: A549
[7] = test system: M14
[8] = test system: UACC-257
[9] = test system: DMS-114
[10] = test system: SN12C
[11] = test system: CCRF-CEM
[12] = test system: HCC 2998
[13] = test system: DMS-273
[14] = test system: NCI-H23
[15] = test system: SK-MEL-2
[16] = test system: M19-MEL
[17] = test system: KM-20L2
[18] = test system: SF-295
[19] = test system: HCT-116
[20] = test system: UACC-62
[21] = test system: TK-10
[22] = test system: NCI-H226
[23] = test system: RXF 393
[24] = test system: HCT-15
[25] = test system: ACHN
[26] = test system: NCI-H522
[27] = test system: HOP-92
[28] = test system: COLO 205
[29] = test system: SK-MEL-5
[30] = test system: HT-29
[31] = test system: U-251
[32] = test system: CAKI-1
[33] = test system: SF-268
[34] = test system: SNB-19
[35] = test system: LOX IMVI
[36] = test system: 786-0
[37] = test system: OVCAR-4
[38] = test system: Malme-3M
[39] = test system: SW-620
[40] = test system: DLD-1
[41] = test system: SNB-78
[42] = test system: OVCAR-3
[43] = test system: KM12
[44] = test system: RXF 631
[45] = test system: SNB-75
[46] = test system: IGROV-1
[47] = test system: HOP-62
[48] = test system: SK-MEL-28
[49] = test system: SF-539
[50] = test system: MOLT-4
[51] = test system: A498
[52] = test system: OVCAR-5
[53] = test system: SK-OV-3
[54] = test system: LXFL 529
[55] = test system: EKVX
[56] = test system: HOP-18
[57] = test system: OVCAR-8

Structure (SMILES): O=C(CC1=Nc2nnc(-c3nnc4n3C(=O)C(CC(=O)c3cccnc3)=N4)n2C1=O)c1cccnc1
- GI50 [1]: > 100 µM (inactive)
- GI50 [2]: > 100 µM (inactive)
- GI50 [3]: > 100 µM (inactive)
- GI50 [4]: > 100 µM (inactive)
- GI50 [5]: > 100 µM (inactive)
- GI50 [6]: > 100 µM (inactive)
- GI50 [7]: > 100 µM (inactive)
- GI50 [8]: > 100 µM (inactive)
- GI50 [9]: > 100 µM (inactive)
- GI50 [10]: > 100 µM (inactive)
- GI50 [11]: > 100 µM (inactive)
- GI50 [12]: > 100 µM (inactive)
- GI50 [13]: > 100 µM (inactive)
- GI50 [14]: > 100 µM (inactive)
- GI50 [15]: > 100 µM (inactive)
- GI50 [16]: > 100 µM (inactive)
- GI50 [17]: > 100 µM (inactive)
- GI50 [18]: > 100 µM (inactive)
- GI50 [19]: > 100 µM (inactive)
- GI50 [20]: > 100 µM (inactive)
- GI50 [21]: > 100 µM (inactive)
- GI50 [22]: > 100 µM (inactive)
- GI50 [23]: > 100 µM (inactive)
- GI50 [24]: > 100 µM
- GI50 [25]: > 100 µM (inactive)
- GI50 [26]: > 100 µM (inactive)
- GI50 [27]: > 100 µM (inactive)
- GI50 [28]: > 100 µM (inactive)
- GI50 [29]: > 100 µM (inactive)
- GI50 [30]: > 100 µM (inactive)
- GI50 [31]: > 100 µM (inactive)
- GI50 [32]: > 100 µM (inactive)
- GI50 [33]: > 100 µM (inactive)
- GI50 [34]: > 100 µM (inactive)
- GI50 [35]: > 100 µM (inactive)
- GI50 [36]: > 100 µM (inactive)
- GI50 [37]: > 100 µM (inactive)
- GI50 [38]: > 100 µM (inactive)
- GI50 [39]: > 100 µM (inactive)
- GI50 [40]: > 100 µM (inactive)
- GI50 [41]: > 100 µM (inactive)
- GI50 [42]: > 100 µM (inactive)
- GI50 [43]: > 100 µM (inactive)
- GI50 [44]: > 100 µM (inactive)
- GI50 [45]: > 100 µM (inactive)
- GI50 [46]: > 100 µM (inactive)
- GI50 [47]: > 100 µM (inactive)
- GI50 [48]: > 100 µM (inactive)
- GI50 [49]: > 100 µM (inactive)
- GI50 [50]: > 100 µM (inactive)
- GI50 [51]: > 100 µM (inactive)
- GI50 [52]: > 100 µM (inactive)
- GI50 [53]: > 100 µM (inactive)
- GI50 [54]: > 100 µM (inactive)

Structure (SMILES): OC1OCC(COc2cc(Cl)c(Cl)cc2Cl)OC1O (stereo not drawn)
- GI50 [1]: 26.2 µM (inactive)
- GI50 [2]: 41.9 µM (inactive)
- GI50 [3]: 33.6 µM (inactive)
- GI50 [4]: 44.5 µM (inactive)
- GI50 [55]: 34.3 µM (inactive)
- GI50 [5]: 26.7 µM (inactive)
- GI50 [6]: 55 µM (inactive)
- GI50 [7]: 30.1 µM (inactive)
- GI50 [8]: 35.9 µM (inactive)
- GI50 [9]: 28.4 µM (inactive)
- GI50 [10]: 38.2 µM (inactive)
- GI50 [11]: 32 µM (inactive)
- GI50 [12]: 30.4 µM (inactive)
- GI50 [13]: 36.4 µM (inactive)
- GI50 [14]: 59.2 µM (inactive)
- GI50 [16]: 66.1 µM (inactive)
- GI50 [17]: > 100 µM (inactive)
- GI50 [18]: 45.8 µM (inactive)
- GI50 [19]: 18.9 µM (inactive)
- GI50 [56]: 25.6 µM (inactive)
- GI50 [20]: 33 µM (inactive)
- GI50 [21]: > 100 µM (inactive)
- GI50 [22]: 41.5 µM (inactive)
- GI50 [24]: 19.8 µM
- GI50 [25]: 25.3 µM (inactive)
- GI50 [26]: 23.6 µM (inactive)
- GI50 [27]: 56.1 µM (inactive)
- GI50 [28]: 52.1 µM (inactive)
- GI50 [29]: 39.5 µM (inactive)
- GI50 [30]: 65.8 µM (inactive)
- GI50 [31]: 36.6 µM (inactive)
- GI50 [32]: 33.1 µM (inactive)
- GI50 [33]: 68.2 µM (inactive)
- GI50 [34]: 33 µM (inactive)
- GI50 [36]: 77.1 µM (inactive)
- GI50 [37]: 31.8 µM (inactive)
- GI50 [38]: 61.2 µM (inactive)
- GI50 [39]: 19.1 µM (inactive)
- GI50 [40]: 44.2 µM (inactive)
- GI50 [41]: 22.7 µM (inactive)
- GI50 [42]: 25.5 µM (inactive)
- GI50 [43]: 35.6 µM (inactive)
- GI50 [44]: 32.7 µM (inactive)
- GI50 [45]: 26.2 µM (inactive)
- GI50 [46]: 80.9 µM (inactive)
- GI50 [47]: 76.7 µM (inactive)
- GI50 [48]: 65.3 µM (inactive)
- GI50 [49]: 39.4 µM (inactive)
- GI50 [50]: 32.2 µM (inactive)
- GI50 [51]: 44.5 µM (inactive)
- GI50 [52]: > 100 µM (inactive)
- GI50 [53]: 88.1 µM (inactive)
- GI50 [54]: 46.8 µM (inactive)
- GI50 [57]: 36.8 µM (inactive)

— ChEMBL document CHEMBL1201862, “PubChem BioAssay data set” (2004)
